In one series the test system is IMR90 cells. Briefly: Cell death of IMR90 cells at the ENU doses used. It counts as cell-based, human. The conditions noted are these: sub-lethal doses of ENU (25 and 50 μg/ml).
Series [1] concerns Human normal lung IMR90 fibroblasts. Briefly: SMM-Seq detection of induced somatic SNVs in IMR90 cells treated with ENU. Type of series: cell-based. The conditions noted are these: for sSNVs frq / mutation spectra: CA count / mutation spectra: CG count / mutation spectra: CT count / mutation spectra: TA count / mutation spectra: TC count / mutation spectra: TG count: 72 hours; for sSNVs frq / sSNVs count: single biological replicate; for sSNVs frq: variants / qualified positions (SNV/1 Mb); for mutation spectra: CA count / mutation spectra: CG count / mutation spectra: CT count / mutation spectra: TA count / mutation spectra: TC count / mutation spectra: TG count: single replicate; for sSNVs count: harvested 72 hours after ENU. On the procedure:
Human normal lung IMR90 fibroblasts were maintained in 10% CO2 and 3% O2 atmosphere at 37° C. in DMEM (GIBCO, Grand Island, NY, USA) supplemented with 10% FBS (GIBCO). Twenty-four hours after cell seeding the culturing media was changed for media containing different doses of ENU. Cells were harvested 72 hours after ENU was applied. Complete media supplemented with ENU (SIGMA, San Louis, MO, USA) was prepared immediately before application from stock solution (100 mg/ml in 100% ethyl alcohol). Control cells were cultured in the presence of the vehicle only.
DNA from fibroblasts and hepatocytes was isolated using Quick-gDNA™ Blood MiniPrep (Zymo Research Corporation, Irvine, CA, USA) according to the manufacturer instructions and quantified using QUBIT kit (ThermoFisher Scientific, USA).
Genomic DNA was first fragmented by double digestion with restriction endonucleases AluI and MluCI (NEB, USA), overnight at 37° C. After purification using 1.5×AMPure XP beads (Beckman Coulter, USA) the fragmented DNA was further processed using NEBNext Ultra II DNA Library Prep Kit for Illumina (NEB). The adapter provided with the kit was replaced with custom adapter P5_HP6N. After double sided size-selection using AMPure XP beads (Beckman Coulter), resulting dumbbell-like product was quantified with QUBIT kit (ThermoFisher) and analyzed on 2100 Bioanalyzer instrument with High Sensitivity DNA kit (Agilent, USA). To prepare P5_HP6N adapter 86 μl of 10 μM solution of oligonucleotide 5′-TCTTC TACAGT NNNNNN AGATCG GAAGAG CACACG TCTGAA CTCCAG TC/ideoxyU/ACACTC TTTCCC TACACG ACGCTC TTCCGA TCT-3′ (IDT, USA) in 0.1×TE buffer was first exposed to 95° C. for 5′ followed by 37° C. for 5′ to form a hairpin. Next, to fill-in the extending 5′-end the self-annealed oligonucleotide was supplemented with 10 μl of Cutsmart buffer (NEB), 2 μl of 10 mM dNTPs mix (NEB) and 10 U of Klenow Fragment (3′→5′ exo-) (NEB) and incubated at 37° C. for 30′. After purification with QIAquick Nucleotide Removal Kit (QIAGEN, USA), the hairpins were digested with 10U of HpyCH4III (NEB) for 1 hour at 37° C., then purified again with QIAquick Nucleotide Removal Kit (QIAGEN) and eluted with 100 μl of EB to obtain ready to use adapter solution.
Next, for SMM sequencing library preparation samples were diluted based on assessed molar concentration. Assuming 150PE sequencing mode and 30 Gb of data per sample, the dilution coefficient (D) was calculated using the formula D=M*NA/1025, where M—sample concentration (pM); NA—Avogadro constant. Next, 1 μl of diluted sample was used as a template in pulse-RCA reaction. The pulse-RCA was performed in 20 μl reaction containing 1 μl of diluted sample, 1 μl of P5-RCA oligo (5′-[…]-3′), 25U (0.5 μl) of SD polymerase HS (BIORON Diagnostics GmbH, Germany), 2 μl of SD polymerase buffer, 1 μl of 10 mM dNTPs mix (NEB), 0.6 μl of 100 mM MgCl2, and 13.9 μl of water. The pulse-RCA program was set as follows: 92° C. for 2′ (1); 92° C. for 30″ (2); 60° C. for 30″ (3); 65° C. for 150″ (4); go to (3) 9 times; hold at 4° C. Product of amplification reaction was purified with […] AMPure XP beads and resuspended in 23 μl TE buffer. The entire volume of RC amplification was PCR amplified in 50 μl reaction volume containing 23 μl of RCA product, 25 μl of NEBNext Ultra II Q5 Master Mix and 1 μl of P5 and P7 dual index oligos. The PCR program was set as follows: 98° C. for 30″ (1); 98° C. for 10″ (2); 65° C. for 75″ (3); go to (2) 8 times (4); 65° C. for 5′ (5); 4° C. forever. The PCR product was purified with 0.7×AMPure XP beads and resuspended in 30 μl of TE buffer. After quantification with Qubit, samples were pooled and sequenced on Illumina NovaSeq instrument using 150 paired-end mode.
Conventional sequencing library was prepared by PCR amplification of adapter ligated samples in 30 μl reaction volume containing 11 μl of undiluted ligated sample, 2U of USER enzyme (NEB) 15 μl of NEBNext Ultra II Q5 Master Mix and 1 μl of P5 and P7 dual index oligos. […]

The test system of series [2] is human primary mammary cells. Briefly: SMM-SV somatic structural variant (SV) frequency after bleomycin. Type of series: cell-based. The conditions noted are these: two different doses of bleomycin, SMM-SV (FIG. 9C). From the text:
As explained, SMM is capable of identifying SNVs and small indels, but not SVs. This is due to the overwhelming amount of chimeric DNA fragments created during library construction. For SMM-seq and other single-molecule assays the process of linking DNA fragments to the sequencing adapters also results in random ligation of DNA fragments to each other. The resulting chimeric sequences are not distinguishable from true SVs since both strands are identical and represent the same SV (FIG. 9A). To address this problem, we used transposase-mediated tagmentation, i.e., the initial step in library preparation where high molecular weight DNA is cleaved and tagged for analysis. While commonly used in library preparation, we used it here in a different, unexpected way. Indeed, as commonly used tagmentation generates priming sites for subsequent PCR which in turn is prone to produce artificial chimeras, giving a similar problem as other approaches. […] To validate SMM-SV we evaluated somatic SV frequency in human primary mammary cells treated with two different doses of bleomycin, a potent […] known to induce somatic SVs. […]

[3] abbreviates: Cond E25 (ENU 25 μg/ml), IMR90 cells.
Where [4] appears, read: Cond E50 (ENU 50 μg/ml), IMR90 cells.
[5] abbreviates: IMR90 cells upon ENU treatment, mutational spectra (FIG. 2C).

Values joined by “and” are separate entries in the source; they are usually repeats but may differ in a detail not shown here. Equal values may be shown once.

In the case of `CCN(N=O)C(N)=O` [ENU, N-ethyl-N-nitrosourea], the cell death result with IMR90 cells was “do not cause any noticeable cell death”. Moreover, in series [1] (setting [3]), the sSNVs frq was 0.411 and 0.3226 and 0.3595; the “mutation spectra: CA count” value was 19 and 16 and 12; the “mutation spectra: CG count” value was 7 and 8 and 4; the “mutation spectra: CT count” value was 10 (2×) and 11. In series [1] (setting [3]), the “mutation spectra: TA count” value was 13 and 10 and 16; the “mutation spectra: TC count” value was 18 and 22 and 20; the “mutation spectra: TG count” value was 9 and 12 and 7; the sSNVs count is 76 and 78 and 70. Besides, in series [1] (setting [4]), the sSNVs frq was 0.571 and 0.5406; the “mutation spectra: CA count” value was 24 and 16; the “mutation spectra: CG count” value was 2 and 6; the “mutation spectra: CT count” value was 32 and 16. Moreover, in series [1] (setting [4]), the “mutation spectra: TA count” value was 38 and 20; the “mutation spectra: TC count” value is 28 and 23; the “mutation spectra: TG count” value is 17 and 9; the sSNVs count was 141 and 90. In series [1] (ENU 50 μg/ml, IMR90 cells), the “increase of mutation frequency versus control” value is recorded as “more than 2 fold”. Further, the mutation frequency in series [1] (ENU 50 μg/ml, IMR90 cells, average±SD of three biological replicates, control 0.21±0.02, p=9.7*10-5) worked out at 0.54±0.03 SNV/1 Mb. Moreover, in series [1] (setting [5]), the “relative representation of AT/CG mutations versus untreated control cells” value is given as “more than 2 times” and the “relative representation of AT/TA mutations versus untreated control cells” value is on record as “more than 2 times”.

On to bleomycin, for which the “somatic SV frequency” value in series [2] is “induced SVs in a dose-dependent manner”.
